Test results published in patent publication US7019109B2, “SSTR1-selective analogs” (The Salk Institute for Bilogical Studies, priority 2001, dated 2006).
Read-outs that look alike come from different tables or passages of the source. *1 amine or outer side, *2 acyl side, *3 side chain or, on linkers, in order; H or OH if unused. Where a SMILES comes first, the peptide text is derived from it. Bridges are numbered along the chain shown (N, C = ends). [ ]: non-standard residue; d: D form. The star is where a group is joined. NMePhe(4-CH2NHiPr) = CN[C@@H](Cc1ccc(CNC(C)C)cc1)C(=O)O; Tyr(Nα-carbamoyl) = NC(=O)N[C@@H](Cc1ccc(O)cc1)C(=O)*; Phe(4-CH2NHiPr) = CC(C)NCc1ccc(C[C@H](N)C(=O)O)cc1; Tyr(3-I) = N[C@@H](Cc1ccc(O)c(I)c1)C(=O)O; X3 = NC(=O)N[C@@H](Cc1ccc(O)c(I)c1)C(=O)*; X1 = NC(=O)N[C@@H](CS[*:2])C(=O)[*:1]; d2Nal = N[C@H](Cc1ccc2ccccc2c1)C(=O)O; NMeS = CN[C@@H](CO)C(=O)O

Experiments:
Format in all cases: binding
human SSTR3 = target: T1, human SSTR3 (Homo sapiens, UniProt P32745); test: Displacement of 125I-[Leu8,D-Trp22,Tyr25]-SRIF-28 from cloned SSTR3 (receptor autoradiography); details: read-out: IC50 (nM) mSSTR3
T1 construct: expressed in transfected cells; host or cells: CHO-K1 cells and CCL39 cells
T1 sequence (P32745 whole entry): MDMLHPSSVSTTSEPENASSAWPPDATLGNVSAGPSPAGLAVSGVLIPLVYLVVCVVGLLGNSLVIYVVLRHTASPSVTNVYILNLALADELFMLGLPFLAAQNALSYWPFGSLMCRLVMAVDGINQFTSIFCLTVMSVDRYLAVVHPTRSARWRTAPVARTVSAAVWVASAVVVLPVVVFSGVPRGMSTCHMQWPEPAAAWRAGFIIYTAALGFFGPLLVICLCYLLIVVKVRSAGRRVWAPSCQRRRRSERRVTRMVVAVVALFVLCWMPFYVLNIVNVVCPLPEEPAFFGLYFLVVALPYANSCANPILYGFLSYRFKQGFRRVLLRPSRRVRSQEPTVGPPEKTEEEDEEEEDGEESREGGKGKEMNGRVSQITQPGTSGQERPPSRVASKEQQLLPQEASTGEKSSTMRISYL
Procedure: (§1) Generally, recombinant cells expressing the receptor are washed and homogenized to prepare a crude protein homogenate that is frozen, embedded and then cut in 10–20 μm thin sections, as known in this art. Candidate substances, such as potential SRIF agonists and antagonists, are incubated with the tissue sections, and the interaction between the candidate substance and the receptor polypeptide is monitored.
(§2) Receptor binding assays are performed on cloned SRIF receptors as generally set forth in Reubi, J. C. et al., J. Clin. Endocrinol. […] Med. 2000, 27, 273–282.
(§3) In vitro Bioassay: The various somatostatin analogs are tested in vitro for their ability to bind to isolated cloned receptors expressed on CHO-K1 cells and CCL39 cells. CHO-K1 cells are grown in Ham's F-12 medium, and CCL39 cells are grown in Dulbecco's modified Eagle's medium/Ham's F-12(1:1) mix, supplemented with 10% fetal bovine serum, 100 U/ml penicillin and 100 μg/ml streptomycin, in humidified air containing 5% CO2 at 37° C.
(§4) Cells are washed and prepared to produce homogenates as described in detail in Reubi, J. C. et al, Eur. J. Nucl. Med. 2000, 27, 273–282.
(§5) Receptor autoradiography is performed on 20 μm thick cryostat sections of the membrane pellets, mounted on microscope slides, and then stored at −20° C. […] Increasing concentrations of the unlabeled peptide are used ranging from 0.1–1000 nM. […] IC50 values are calculated after quantification of the data using a computer-assisted image processing system as known in this art.

human SSTR4 = target: T2, human SSTR4 (Homo sapiens, UniProt P31391); test: Displacement of 125I-[Leu8,D-Trp22,Tyr25]-SRIF-28 from cloned SSTR4 (receptor autoradiography); details: read-out: IC50 (nM) mSSTR4
T2 construct: expressed in transfected cells; host or cells: CHO-K1 cells and CCL39 cells
T2 sequence (P31391 whole entry): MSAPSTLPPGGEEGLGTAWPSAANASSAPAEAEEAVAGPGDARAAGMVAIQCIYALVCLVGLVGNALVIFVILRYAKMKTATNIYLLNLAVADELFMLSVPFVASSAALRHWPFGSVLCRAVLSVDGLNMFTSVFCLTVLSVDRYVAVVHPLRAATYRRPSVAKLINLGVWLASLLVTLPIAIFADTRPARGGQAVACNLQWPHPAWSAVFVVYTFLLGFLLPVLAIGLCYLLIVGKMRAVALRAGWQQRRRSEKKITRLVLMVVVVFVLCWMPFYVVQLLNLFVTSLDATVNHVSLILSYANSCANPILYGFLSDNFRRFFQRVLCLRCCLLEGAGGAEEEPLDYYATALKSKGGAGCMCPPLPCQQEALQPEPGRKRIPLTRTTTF
Procedure: as §1, §2, §3, §4, §5

human SSTR2 = target: T3, human SSTR2 (Homo sapiens, UniProt P30874); test: Displacement of 125I-[Leu8,D-Trp22,Tyr25]-SRIF-28 from cloned SSTR2 (receptor autoradiography); details: read-out: IC50 (nM) mSSTR2
T3 construct: expressed in transfected cells; host or cells: CHO-K1 cells and CCL39 cells
T3 sequence (P30874 whole entry): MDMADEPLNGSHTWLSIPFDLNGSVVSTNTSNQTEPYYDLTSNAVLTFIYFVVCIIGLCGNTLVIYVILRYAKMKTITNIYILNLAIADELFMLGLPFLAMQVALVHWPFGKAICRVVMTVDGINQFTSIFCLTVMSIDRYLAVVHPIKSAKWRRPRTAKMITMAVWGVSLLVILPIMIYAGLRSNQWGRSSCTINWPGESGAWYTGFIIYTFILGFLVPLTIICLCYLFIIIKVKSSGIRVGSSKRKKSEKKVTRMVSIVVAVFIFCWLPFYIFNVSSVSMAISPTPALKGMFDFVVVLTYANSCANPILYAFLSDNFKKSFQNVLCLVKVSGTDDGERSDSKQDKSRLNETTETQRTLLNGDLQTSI
Procedure: as §1, §2, §3, §4
(§6) Receptor autoradiography is performed on 20 μm thick cryostat sections of the membrane pellets, mounted on microscope slides, and then stored at −20° C. […] […] […] IC50 values are calculated after quantification of the data using a computer-assisted image processing system as known in this art.

human SSTR5 = target: T4, human SSTR5 (Homo sapiens, UniProt P35346); test: Displacement of 125I-[Leu8,D-Trp22,Tyr25]-SRIF-28 from cloned SSTR5 (receptor autoradiography); details: read-out: IC50 (nM) mSSTR5
T4 construct: expressed in transfected cells; host or cells: CHO-K1 cells and CCL39 cells
T4 sequence (P35346 whole entry): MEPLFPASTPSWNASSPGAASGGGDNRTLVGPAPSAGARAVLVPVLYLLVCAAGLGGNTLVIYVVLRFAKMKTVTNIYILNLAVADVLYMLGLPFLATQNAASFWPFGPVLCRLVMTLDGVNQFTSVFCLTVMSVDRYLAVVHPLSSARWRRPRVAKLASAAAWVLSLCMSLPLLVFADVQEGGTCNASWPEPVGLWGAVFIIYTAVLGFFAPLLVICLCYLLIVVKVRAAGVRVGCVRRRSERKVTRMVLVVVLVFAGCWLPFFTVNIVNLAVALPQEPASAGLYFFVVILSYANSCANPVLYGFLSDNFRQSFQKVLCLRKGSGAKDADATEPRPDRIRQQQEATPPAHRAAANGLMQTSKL
Procedure: as §1, §2, §3, §4, §6

human SSTR1 = target: T5, human SSTR1 (Homo sapiens, UniProt P30872); test: Displacement of 125I-[Leu8,D-Trp22,Tyr25]-SRIF-28 from cloned SSTR1 (receptor autoradiography)
T5 construct: expressed in transfected cells; host or cells: CHO-K1 cells and CCL39 cells
T5 sequence (P30872 whole entry): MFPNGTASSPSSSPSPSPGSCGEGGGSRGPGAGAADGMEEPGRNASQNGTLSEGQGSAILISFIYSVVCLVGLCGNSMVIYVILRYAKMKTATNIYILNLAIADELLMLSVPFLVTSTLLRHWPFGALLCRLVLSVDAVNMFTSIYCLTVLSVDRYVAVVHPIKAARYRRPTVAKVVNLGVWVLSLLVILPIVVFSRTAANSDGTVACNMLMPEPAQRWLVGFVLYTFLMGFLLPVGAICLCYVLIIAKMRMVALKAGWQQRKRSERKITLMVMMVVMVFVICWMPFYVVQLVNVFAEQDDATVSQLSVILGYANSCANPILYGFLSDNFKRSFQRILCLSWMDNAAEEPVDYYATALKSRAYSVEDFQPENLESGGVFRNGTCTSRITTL
Procedure: as §1, §2, §3, §4, §5

[1] = inhibition of radioligand binding of 125I-[Leu8,D-Trp22,Tyr24]SRIF-28, cloned receptor, table, read-out: IC50 (nM) mSSTR1
[2] = inhibition of radioligand binding of 125I-[Leu8,D-Trp22,Tyr24]SRIF-28, cloned receptor, table
[3] = unit inferred, read-out: IC50 / binding affinity at SSTR1, unit inferred

SMILES | IC50 (human SSTR3) [nM] | IC50 (human SSTR4) [nM] | IC50 (human SSTR2) [nM] | IC50 (human SSTR5) [nM] | IC50 (human SSTR1; [1]) [nM] | IC50 (human SSTR1; displacement of iodinated SRIF-28 radioligand, read-out: IC50 / binding affinity at human SSTR1) [nM] | IC50 (human SSTR4; [2]) [nM] | IC50 (human SSTR1; [3]) [nM]
CC(C)NCc1ccc(C[C@H]2C(=O)N[C@@H]([C@@H](C)O)C(=O)N[C@@H](Cc3ccccc3)C(=O)N[C@@H]([C@@H](C)O)C(=O)N[C@@H](CO)C(=O)N[C@H](C(=O)O)CSSC[C@H](N)C(=O)N[C@@H](CCCCN)C(=O)N[C@@H](Cc3ccccc3)C(=O)N[C@@H](Cc3ccccc3)C(=O)N[C@H](Cc3c[nH]c4ccccc34)C(=O)N2C)cc1 [Peptide No. 13, (cyclo)H-Cys-Lys-Phe-Phe-D-Trp-N^αMeIAmp-Thr-Phe-Thr-Ser-Cys-OH] (H-CKFF[dW][NMePhe(4-CH2NHiPr)]TFTSC-OH; disulfide 1-11) | 610 | 200 | > 10000 | > 10000 | 8.7 | ~8.7 | – | –
CC(C)NCc1ccc(C[C@@H]2NC(=O)[C@@H](Cc3c[nH]c4ccccc34)NC(=O)[C@H](Cc3ccccc3)NC(=O)[C@H](Cc3ccccc3)NC(=O)[C@H](CCCCN)NC(=O)[C@@H](NC(=O)[C@H](Cc3ccc(O)cc3)NC(N)=O)CSSC[C@@H](C(=O)O)NC(=O)[C@H](CO)NC(=O)[C@H]([C@@H](C)O)NC(=O)[C@H](Cc3ccccc3)NC(=O)[C@H]([C@@H](C)O)NC2=O)cc1 [Peptide No. 14A, (cyclo)CbmTyr-Cys-Lys-Phe-Phe-D-Trp-IAmp-Thr-Phe-Thr-Ser-Cys-OH] ({Tyr(Nα-carbamoyl)}-CKFF[dW][Phe(4-CH2NHiPr)]TFTSC-OH; disulfide 1-11) | 500 | – | > 10000 | > 1000 | – | – | > 1000 | 15
CC(C)NCc1ccc(C[C@@H]2NC(=O)[C@@H](Cc3c[nH]c4ccccc34)NC(=O)[C@H](Cc3ccccc3)NC(=O)[C@H](Cc3ccccc3)NC(=O)[C@H](CCCCN)NC(=O)[C@@H](NC(=O)[C@H](Cc3ccc(O)c(I)c3)NC(N)=O)CSSC[C@@H](C(=O)O)NC(=O)[C@H](CO)NC(=O)[C@H]([C@@H](C)O)NC(=O)[C@H](Cc3ccccc3)NC(=O)[C@H]([C@@H](C)O)NC2=O)cc1 [Peptide No. 14B] (X3-CKFF[dW][Phe(4-CH2NHiPr)]TFTSC-OH; disulfide 1-11) | 290 | > 1000 | > 1000 | > 1000 | 34.7 | – | – | –
CC(C)NCc1ccc(C[C@@H]2NC(=O)[C@@H](Cc3c[nH]c4ccccc34)NC(=O)[C@H](Cc3ccccc3)NC(=O)[C@H](Cc3ccccc3)NC(=O)[C@H](CCCCN)NC(=O)[C@H](NC(=O)[C@H](Cc3ccc(O)cc3)NC(N)=O)CSSC[C@@H](C(=O)O)NC(=O)[C@H](CO)NC(=O)[C@H]([C@@H](C)O)NC(=O)[C@H](Cc3ccccc3)NC(=O)[C@H]([C@@H](C)O)NC2=O)cc1 [Peptide No. 14C, (cyclo)CbmTyr-D-Cys-Lys-Phe-Phe-D-Trp-IAmp-Thr-Phe-Thr-Ser-Cys-OH] ({Tyr(Nα-carbamoyl)}-[dC]KFF[dW][Phe(4-CH2NHiPr)]TFTSC-OH; disulfide 1-11) | > 1000 | – | > 10000 | > 1000 | 33 | – | 487 | –
CC(C)NCc1ccc(C[C@H]2C(=O)N[C@@H]([C@@H](C)O)C(=O)N[C@@H](Cc3ccc(O)cc3)C(=O)N[C@@H]([C@@H](C)O)C(=O)N[C@@H](CO)C(=O)N[C@H](C(=O)O)CSSC[C@H](NC(N)=O)C(=O)N[C@@H](CCCCN)C(=O)N[C@@H](Cc3ccccc3)C(=O)N[C@@H](Cc3ccccc3)C(=O)N[C@H](Cc3ccc4ccccc4c3)C(=O)N2C)cc1 [Peptide No. 16, (cyclo)CbmCys-Lys-Phe-Phe-D-2Nal-N^αMeIAmp-Thr-Tyr-Thr-Ser-Cys-OH] (KFF[d2Nal][NMePhe(4-CH2NHiPr)]TYTSC-OH; linker N-10 via X1) | > 1000 | > 10000 | > 10000 | > 10000 | 32 | – | – | ~32
CC(C)NCc1ccc(C[C@@H]2NC(=O)[C@@H](Cc3c[nH]c4ccccc34)NC(=O)[C@H](Cc3ccccc3)NC(=O)[C@H](Cc3ccccc3)NC(=O)[C@H](CCCCN)NC(=O)[C@@H](N)CSSC[C@@H](C(=O)O)NC(=O)[C@H](CO)N(C)C(=O)[C@H]([C@@H](C)O)NC(=O)[C@H](Cc3ccccc3)NC(=O)[C@H]([C@@H](C)O)NC2=O)cc1 [Peptide No. 22A, (cyclo)H-Cys-Lys-Phe-Phe-D-Trp-IAmp-Thr-Phe-Thr-N^αMeSer-Cys-OH] (H-CKFF[dW][Phe(4-CH2NHiPr)]TFT[NMeS]C-OH; disulfide 1-11) | 600 | > 1000 | > 10000 | > 1000 | 25 | – | – | –

Other lines, results leading:

IC50 (human SSTR3) [nM] | IC50 (human SSTR4) [nM] | IC50 (human SSTR2) [nM] | IC50 (human SSTR5) [nM] | IC50 (human SSTR1; [1]) [nM] | IC50 (human SSTR1; displacement of iodinated SRIF-28 radioligand, read-out: IC50 / binding affinity at human SSTR1) [nM] | IC50 (human SSTR4; [2]) [nM] | IC50 (human SSTR1; [3]) [nM] | SMILES
> 1000 | 700 | > 1000 | > 1000 | 8.5 | – | – | – | CC(C)NCc1ccc(C[C@H]2C(=O)N[C@@H]([C@@H](C)O)C(=O)N[C@@H](Cc3ccc(O)c(I)c3)C(=O)N[C@@H]([C@@H](C)O)C(=O)N[C@@H](CO)C(=O)N[C@H](C(=O)O)CSSC[C@H](NC(N)=O)C(=O)N[C@@H](CCCCN)C(=O)N[C@@H](Cc3ccccc3)C(=O)N[C@@H](Cc3ccccc3)C(=O)N[C@H](Cc3c[nH]c4ccccc34)C(=O)N2C)cc1 [Peptide No. 12D, (cyclo)CbmCys-Lys-Phe-Phe-D-Trp-N^αMeIAmp-Thr-ITyr-Thr-Ser-Cys-OH] (KFF[dW][NMePhe(4-CH2NHiPr)]T[Tyr(3-I)]TSC-OH; linker N-10 via X1)
> 1000 | > 1000 | > 1000 | > 10000 | 43 | – | – | ~32.5 | CC(C)NCc1ccc(C[C@H]2C(=O)N[C@@H]([C@@H](C)O)C(=O)N[C@@H](Cc3ccccc3)C(=O)N[C@@H]([C@@H](C)O)C(=O)N[C@@H](CO)C(=O)N[C@H](C(=O)O)CSSC[C@H](N)C(=O)N[C@@H](CCCCN)C(=O)N[C@@H](Cc3ccccc3)C(=O)N[C@@H](Cc3ccccc3)C(=O)N[C@H](Cc3ccc4ccccc4c3)C(=O)N2C)cc1 [Peptide No. 15, (cyclo)H-Cys-Lys-Phe-Phe-D-2Nal-N^αMeIAmp-Thr-Phe-Thr-Ser-Cys-OH] (H-CKFF[d2Nal][NMePhe(4-CH2NHiPr)]TFTSC-OH; disulfide 1-11)
